Experimental data from patent US7067158B2, “Preparation for the relief of disease” (AKL Technologies Limited, priority 2001, dated 2006).

Key:
[1] = test system: Platelet Activating Factor (PAF); details: cited from earlier work
[2] = Treatment of laminitis in horses; type: in vivo; details: horse L: on Bute for two months
Description: (§1) The loading dose is from three to ten days according to individual perceived clinical need. After the loading dose, the maintenance dose follows for a minimum (normally) of 30 days continuing as needed. The doses are scaled according to individual size/body weight. The dose was added as a powder in the animals' feed.
(§2) JMJ, FRA and D-Tox are available from Nutrilabs of Penrhos, Raglan, Monmouthshire. They are used to make the following Example compositions according to the invention, which were used in Examples A to AA below. The following gives a daily dose for a 450 kg horse. With any of the following Example Compositions during ANY acute phase, a loading dose of 3 times the daily dose may be used to assist a rapid return to ‘well being’.

[3] = Treatment of COPD in horses; type: in vivo; details: horse K: COPD
Description: as §1, §2

platelets = test: Born aggregometry: ADP-induced platelet aggregation in platelet rich plasma (PRP); type: cell-based, human; details: ADP 4×10^−6 M
Description: Extracts of components were prepared by stirring macerated samples overnight in methanol. The mixtures were centrifuged, the supernatants drawn off and dried to remove all traces of the extracting solvent. Resulting solids were re-suspended in normal saline (0.9% w/v NaCl) at saturated concentrations.
Extracts 2, 5 and 8 were reconstituted in 0.9% saline at saturated concentrations.
Citrated whole blood, from healthy volunteers, was spun at 900 rpm for 20 minutes to obtain platelet rich plasma (PRP). Born aggregometry was then carried out within 1 hour of blood being taken. Extracts 2, 5, and 8 were added to 450 μl PRP either singly (6 μl), or in combination with one other extract (3 μl each), or all the extracts in combination (2 μl each). PRP was then stimulated with ADP (Sigma) 4×10^−6 M. 6 μl of saline was added to PRP for the control. Aggregation was measured in a PAP4C aggregometer (BioData Corp. Horsham USA) over 10 minutes.
The dose of agonist was chosen to give slightly sub-optimal aggregation thus showing the maximum effect of any inhibition. Doses of extracts were chosen to show the effect on platelets when used alone and any added and/or synergistic effect of using combinations. All data is recorded as the maximum aggregation.

## CC1C(=O)OC2C(O)C34C5CC(C(C)(C)C)C36C(OC(=O)C6O)OC4(C(=O)O5)C12O (stereo not shown) [ginkgolide B]
[1]
  PAF inhibiting activity: potent

## CCCCC1C(=O)N(c2ccccc2)N(c2ccccc2)C1=O [Bute]
[2]
  adverse reaction: ulcers around the mouth and sores on the muzzle

## CC(C)(C)NCC(O)c1cc(Cl)c(N)c(Cl)c1 (stereo not shown) [Ventipulmin, clenbuterol]
[3]
  clinical outcome (owner report): had no effect

## COc1cc(C(C)=O)ccc1O [Extract 2, Apocynin]
platelets
  effect on platelet aggregation in response to ADP (in words): reduced platelet aggregation in response to ADP
